According to US20180002319A1, “MACROCYCLIC PICOLINAMIDE COMPOUNDS WITH FUNGICIDAL ACTIVITY” (DOW AGROSCIENCES LLC, priority 2014, published 2018):
Like-named read-outs stand apart in the source and are kept apart here.

Columns and labels:
Zymoseptoria tritici = experiment: Leaf Blotch of Wheat (SEPTTR) fungicidal activity; format: in vivo; settings: wheat leaf blotch; for pest or weed control at 121.5 g/ha: Low Volume application, 121.5 g/H; for pest or weed control at 100 ppm: High Volume application
Description: Example A: Evaluation of Fungicidal Activity: Leaf Blotch of Wheat (Zymoseptoria tritici; Bayer Code […]) Technical grades of materials were dissolved in acetone, which were then mixed with nine volumes of H2O containing 110 ppm Triton X-100. The fungicide solutions were applied onto wheat seedlings using an automated booth sprayer to run-off. All sprayed plants were allowed to air dry prior to further handling. All fungicides were evaluated using the aforementioned method for their activity vs. all target diseases, unless stated otherwise. Wheat leaf blotch and brown rust activity were also evaluated using track spray applications, in which case the fungicides were formulated as EC formulations, containing 0.1% Trycol 5941 in the spray solutions. Wheat plants (variety Yuma) were grown from seed in a greenhouse in 50% mineral soil/50% soil-less Metro mix until the first leaf was fully emerged, with 7-10 seedlings per pot. These plants were inoculated with an aqueous spore suspension of Zymoseptoria tritici either prior to or after fungicide treatments. After inoculation the plants were kept in 100% relative humidity (one day in a dark dew chamber followed by two to three days in a lighted dew chamber at 20° C.) to permit spores to germinate and infect the leaf. The plants were then transferred to a greenhouse set at 20° C. for disease to develop. When disease symptoms were fully expressed on the 1st leaves of untreated plants, infection levels were assessed on a scale of 0 to 100 percent disease severity. Percent disease control was calculated using the ratio of disease severity on treated plants relative to untreated plants.

Puccinia triticina = experiment: Wheat Brown Rust (PUCCRT) fungicidal activity; format: in vivo; settings: for pest or weed control at 121.5 g/ha: Low Volume application, 121.5 g/H; for pest or weed control at 100 ppm: High Volume application
Description: Technical grades of materials were dissolved in acetone, which were then mixed with nine volumes of H2O containing 110 ppm Triton X-100. The fungicide solutions were applied onto wheat seedlings using an automated booth sprayer to run-off. All sprayed plants were allowed to air dry prior to further handling. All fungicides were evaluated using the aforementioned method for their activity vs. all target diseases, unless stated otherwise. Wheat leaf blotch and brown rust activity were also evaluated using track spray applications, in which case the fungicides were formulated as EC formulations, containing 0.1% Trycol 5941 in the spray solutions. Wheat plants (variety Yuma) were grown from seed in a greenhouse in 50% mineral soil/50% soil-less Metro mix until the first leaf was fully emerged, with 7-10 seedlings per pot. These plants were inoculated with an aqueous spore suspension of Zymoseptoria tritici either prior to or after fungicide treatments. After inoculation the plants were kept in 100% relative humidity (one day in a dark dew chamber followed by two to three days in a lighted dew chamber at 20° C.) to permit spores to germinate and infect the leaf. The plants were then transferred to a greenhouse set at 20° C. for disease to develop. When disease symptoms were fully expressed on the 1st leaves of untreated plants, infection levels were assessed on a scale of 0 to 100 percent disease severity. Percent disease control was calculated using the ratio of disease severity on treated plants relative to untreated plants. Example B: Evaluation of Fungicidal Activity: Wheat Brown Rust (Puccinia triticina; Bayer Code PUCCRT) Wheat plants (variety Yuma) were grown from seed in a greenhouse in 50% mineral soil/50% soil-less Metro mix until the first leaf was fully emerged, with 7-10 seedlings per pot. These plants were inoculated with an aqueous spore suspension of Puccinia triticina either prior to or after fungicide treatments. After inoculation the plants were kept in a dark dew room at 22° C. with 100% relative humidity overnight to permit spores to germinate and infect the leaf. The plants were then transferred to a greenhouse set at 24° C. for disease to develop. Fungicide formulation, application and disease assessment followed the procedures as described in the Example A.

[1] = 24 h, 1 day protectant, read-out: SEPTTR disease control, 1DP (1 Day Protectant)
[2] = 24 h, 1 day protectant, read-out: PUCCRT disease control, 1DP (1 Day Protectant)
[3] = 72 h, 3 day curative, read-out: PUCCRT disease control, 3DC (3 Day Curative)
[4] = 72 h, 3 day curative, read-out: SEPTTR disease control, 3DC (3 Day Curative)

| Compound | pest or weed control at 121.5 g/ha (Zymoseptoria tritici; [1]) [%] | pest or weed control at 121.5 g/ha (Puccinia triticina; [2]) [%] | pest or weed control at 121.5 g/ha (Puccinia triticina; [3]) [%] | pest or weed control at 121.5 g/ha (Zymoseptoria tritici; [4]) [%] | pest or weed control at 100 ppm (Zymoseptoria tritici; [1]) [%] | pest or weed control at 100 ppm (Puccinia triticina; [2]) [%] | pest or weed control at 100 ppm (Puccinia triticina; [3]) [%] | pest or weed control at 100 ppm (Zymoseptoria tritici; [4]) [%] |
| --- | --- | --- | --- | --- | --- | --- | --- | --- |
| COc1ccnc(C(=O)N[C@H]2CCCC[C@H](CC3CCCC3)[C@@H](OC)[C@H](C)OC2=O)c1OC(C)=O [Compound 59] | < 80 | > 80 | > 80 | – | – | – | – | – |
| COc1ccnc(C(=O)N[C@H]2CCCC[C@H](Cc3ccccc3)[C@@H](OC(=O)C(C)C)[C@H](C)OC2=O)c1OCOC(C)=O [Compound 60] | > 80 | > 80 | > 80 | > 80 | – | – | – | – |
| COc1ccnc(C(=O)N[C@H]2CCCC[C@H](CC3CCCC3)[C@@H](OC)[C@H](C)OC2=O)c1OCOC(C)=O [Compound 61] | < 80 | > 80 | > 80 | < 80 | – | – | – | – |
| COc1ccnc(C(=O)N[C@H]2CCCC[C@H](Cc3ccccc3)[C@@H](Oc3ccccc3)[C@H](C)OC2=O)c1OCOC(C)=O [Compound 62] | > 80 | > 80 | < 80 | > 80 | – | – | – | – |
| COc1ccnc(C(=O)N[C@H]2CCCC[C@H](Cc3ccccc3)[C@@H](Oc3ccccc3)[C@H](C)OC2=O)c1OC(C)=O [Compound 64] | > 80 | > 80 | < 80 | > 80 | – | – | – | – |
| COc1ccc(C[C@H]2CCOC[C@H](NC(=O)c3nccc(OC)c3OC(C)=O)C(=O)O[C@@H](C)[C@@H]2Oc2ccccc2)cc1 [Compound 65] | > 80 | > 80 | < 80 | < 80 | – | – | – | – |
| COc1ccc(C[C@H]2CCOC[C@H](NC(=O)c3nccc(OC)c3OCOC(C)=O)C(=O)O[C@@H](C)[C@@H]2Oc2ccccc2)cc1 [Compound 66] | > 80 | > 80 | < 80 | > 80 | – | – | – | – |
| COc1ccc(C[C@H]2CCOC[C@H](NC(=O)c3nccc(OC)c3OCOC(=O)C(C)C)C(=O)O[C@@H](C)[C@@H]2Oc2ccccc2)cc1 [Compound 67, ((4-methoxy-2-(((3S,8S,9R,10S)-8-(4-methoxybenzyl)-10-methyl-2-oxo-9-phenoxy-1,5-dioxecan-3-yl)carbamoyl)pyridin-3-yl)oxy)methyl isobutyrate] | > 80 | > 80 | < 80 | < 80 | – | – | – | – |
| COc1ccc(C[C@H]2CCOC[C@H](NC(=O)c3nccc(OC)c3OC(=O)C(C)C)C(=O)O[C@@H](C)[C@@H]2Oc2ccccc2)cc1 [Compound 68] | < 80 | > 80 | – | < 80 | – | – | – | – |
| CC[C@H]1CCOC[C@H](NC(=O)c2nccc(OC)c2OCOC(C)=O)C(=O)O[C@@H](C)[C@@H]1Oc1ccccc1 [Compound 69] | > 80 | > 80 | > 80 | > 80 | – | – | – | – |
| CC[C@H]1CCOC[C@H](NC(=O)c2nccc(OC)c2OCOC(C)=O)C(=O)O[C@@H](C)[C@@H]1OCC(C)C [Compound 70] | > 80 | > 80 | > 80 | < 80 | – | – | – | – |
| COc1ccnc(C(=O)N[C@H]2COCC[C@H](Cc3ccc(F)cc3)[C@@H](Oc3ccccc3)[C@H](C)OC2=O)c1OC(C)=O [Compound 71] | > 80 | > 80 | > 80 | > 80 | – | – | – | – |
| COc1ccnc(C(=O)N[C@H]2COCC[C@H](Cc3ccc(F)cc3)[C@@H](Oc3ccccc3)[C@H](C)OC2=O)c1OCOC(C)=O [Compound 72] | > 80 | > 80 | > 80 | > 80 | – | – | – | – |
| COc1ccnc(C(=O)N[C@H]2COCC[C@H](Cc3ccc(F)cc3)[C@@H](Oc3ccccc3)[C@H](C)OC2=O)c1OCOC(=O)C(C)C [Compound 73] | > 80 | > 80 | > 80 | > 80 | – | – | – | – |
| COc1ccnc(C(=O)N[C@H]2COCC[C@H](Cc3ccc(F)cc3)[C@@H](OCC3CC3)[C@H](C)OC2=O)c1OCOC(C)=O [Compound 74] | > 80 | > 80 | > 80 | < 80 | – | – | – | – |
| COc1ccnc(C(=O)N[C@H]2COCC[C@H](Cc3ccc(F)cc3)[C@@H](OC(=O)C(C)C)[C@H](C)OC2=O)c1OC(C)=O [Compound 75] | > 80 | > 80 | > 80 | < 80 | – | – | – | – |
| COc1ccnc(C(=O)N[C@H]2COCC[C@H](Cc3ccc(F)cc3)[C@@H](OC(=O)C(C)C)[C@H](C)OC2=O)c1OCOC(C)=O [Compound 76] | > 80 | > 80 | > 80 | > 80 | – | – | – | – |
| COc1ccnc(C(=O)N[C@H]2COCC[C@H](Cc3ccc(F)cc3)[C@@H](OCC3CC3)[C@H](C)OC2=O)c1OC(C)=O [Compound 77] | > 80 | > 80 | > 80 | < 80 | – | – | – | – |
| CCOCC(=O)OCOc1c(OC)ccnc1C(=O)N[C@H]1COCC[C@H](Cc2ccc(F)cc2)[C@@H](OCC2CC2)[C@H](C)OC1=O [Compound 78] | > 80 | > 80 | > 80 | < 80 | – | – | – | – |
| CC[C@H]1CCOC[C@H](NC(=O)c2nccc(OC)c2OCOC(C)=O)C(=O)O[C@@H](C)[C@@H]1OC(=O)C1CC1 [Compound 79] | > 80 | > 80 | > 80 | – | – | – | – | – |
| CC[C@H]1CCOC[C@H](NC(=O)c2nccc(OC)c2OC(C)=O)C(=O)O[C@@H](C)[C@@H]1OC(=O)c1ccccc1 [Compound 80] | > 80 | > 80 | > 80 | < 80 | – | – | – | – |
| COc1ccnc(C(=O)N[C@H]2COCC[C@H](OCc3ccccc3)[C@@H](OCc3ccccc3)[C@H](C)OC2=O)c1O [Compound 81] | – | – | – | – | > 80 | > 80 | > 80 | – |
| CCCCO[C@H]1CCOC[C@H](NC(=O)c2nccc(OC)c2O)C(=O)O[C@@H](C)[C@@H]1OCc1ccccc1 [Compound 82] | – | – | – | – | < 80 | > 80 | > 80 | > 80 |
| CCCCO[C@H]1CCOC[C@H](NC(=O)c2nccc(OC)c2O)C(=O)O[C@@H](C)[C@@H]1OC(=O)C(C)C [Compound 83] | – | – | – | – | < 80 | > 80 | > 80 | > 80 |
